In patent publication US20230077362A1 (CORTEVA AGRISCIENCE LLC, priority 2019, published 2023):

Legend:
Format in all cases: in vivo
[1] = system: Green Peach Aphid ("GPA") (Myzus persicae), wingless adult and nymph stages; assay: Bioassay on green peach aphid (GPA), foliar spray on infested cabbage seedlings; conditions: Myzus persicae, foliar, 72 h, read-out: GPA (Biological Results, rating)
Experimental: Certain molecules disclosed in this document were tested against GPA using procedures described in the following example. In the reporting of the results, the “GPA Rating Table” was used (See Table Section).
Cabbage seedlings grown in 3-inch pots, with 2-3 small (3-5 cm) true leaves, were used as test substrate. The seedlings were infested with 20-50 GPA (wingless adult and nymph stages) one day prior to chemical application. Four pots with individual seedlings were used for each treatment. Test compounds (2 mg) were dissolved in 2 mL of acetone/methanol (1:1) solvent, forming stock solutions of 1000 ppm test compound. […] A hand-held aspirator-type sprayer was used for spraying a solution to both sides of […] leaves until runoff. Reference plants (solvent check) were sprayed with the diluent only containing 20% by volume of acetone/methanol (1:1) solvent. Treated plants were held in a holding room for three days at approximately 25° C. and ambient relative humidity (RH) prior to grading. Evaluation was conducted by counting the number of live aphids per plant under a microscope.
Corrected % Control=100*(X−Y)/X • where • X=No. of live aphids on solvent check plants and • Y=No. of live aphids on treated plants
The results are indicated in the table entitled “Table ABC: Biological Results” (See Table Section).

[2] = system: Cabbage Looper (Trichoplusia ni) ("CL"), second instar larvae; assay: Bioassay on cabbage looper (CL), 128-well diet tray assay; conditions: Table ABC, species CL; for mortality at 50 µg/cm2: Trichoplusia ni, 128-well diet tray assay, second instar larvae, read-out: CL rating (% control or mortality class); for CL rating: C = not tested, D = no activity noticed
Procedure, shortened: (§1)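 After sealing with a clear self-adhesive lid, the trays are incubated at 25° C. with 14 h light and 10 h dark for 5 to 7 days; mortality in each well is recorded as a percentage and averaged across the eight wells.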

[3] = system: Beet Armyworm (Spodoptera exigua) ("BAW"), second instar larvae; assay: Bioassay on beet armyworm (BAW), 128-well diet tray assay; conditions: Table ABC, species BAW; for BAW rating (% control or mortality class): 128-well diet tray assay, second instar larvae; for BAW rating: C = not tested, D = no activity noticed
Procedure, shortened: as §1

With `CCCc1ccc(C)cc1N1C(=O)CS/C1=N\C(=O)Nc1ccc(-c2ncn(-c3ccc(OC(F)(F)F)cc3)n2)cc1F` [Compound J41, (Z)-1-(2-Fluoro-4-(1-(4-(trifluoromethoxy)phenyl)-1H-1,2,4-triazol-3-yl)phenyl)-3-(3-(5-methyl-2-propylphenyl)-4-oxothiazolidin-2-ylidene)urea] the pest or weed control at 200 µg/mL [1] was 0 to 80%.

With `Cc1ccc(COCC(F)(F)F)c(N2C(=O)CS/C2=N\C(=O)Nc2ccc(-n3cnc(-c4ccc(OC(F)(F)F)cc4)c3)cc2Cl)c1` [Compound J786, (Z)-1-(2-Chloro-4-(4-(4-(trifluoromethoxy)phenyl)-1H-imidazol-1-yl)phenyl)-3-(3-(5-methyl-2-((2,2,2-trifluoroethoxy)methyl)phenyl)-4-oxothiazolidin-2-ylidene)urea] the mortality at 50 µg/cm2 [2] was 50 to 100% and the “BAW rating (% control or mortality class)” value [3] was “A (50-100)”.

In the case of `Cc1ccc(COCC(F)F)c(N2C(=O)CS/C2=N\C(=O)Nc2ccc(-n3cnc(-c4ccc(OC(F)(F)F)cc4)c3)cc2Cl)c1` [Compound J787, (Z)-1-(2-Chloro-4-(4-(4-(trifluoromethoxy)phenyl)-1H-imidazol-1-yl)phenyl)-3-(3-(2-((2,2-difluoroethoxy)methyl)-5-methylphenyl)-4-oxothiazolidin-2-ylidene)urea], the mortality at 50 µg/cm2 [2] is reported as 50 to 100% and the “BAW rating (% control or mortality class)” value [3] is reported as “A (50-100)”.

For `COCc1ccc(C)cc1N1C(=O)CS/C1=N\C(=O)Nc1ccc(-n2cnc(-c3ccc(OC(F)(F)F)cc3)c2)cc1Cl` [Compound J788, (Z)-1-(2-Chloro-4-(4-(4-(trifluoromethoxy)phenyl)-1H-imidazol-1-yl)phenyl)-3-(3-(2-(methoxymethyl)-5-methylphenyl)-4-oxothiazolidin-2-ylidene)urea], the mortality at 50 µg/cm2 [2] was 50 to 100% and the “BAW rating (% control or mortality class)” value [3] was “A (50-100)”.

For `COCc1ccc(N(C)C)cc1N1C(=O)CS/C1=N\C(=O)Nc1ccc(-n2cnc(-c3ccc(OC(F)(F)F)cc3)c2)cc1Cl` [Compound J789, (Z)-1-(2-Chloro-4-(4-(4-(trifluoromethoxy)phenyl)-1H-imidazol-1-yl)phenyl)-3-(3-(5-(dimethylamino)-2-(methoxymethyl)phenyl)-4-oxothiazolidin-2-ylidene)urea], the mortality at 50 µg/cm2 [2] was 50 to 100% and the “BAW rating (% control or mortality class)” value [3] was “A (50-100)”.

In the case of `Cc1ccc(OCCC(F)(F)F)c(N2C(=O)CS/C2=N\C(=O)Nc2ccc(-n3cnc(-c4ccc(OC(F)(F)F)cc4)c3)cc2Cl)c1` [Compound J790, (Z)-1-(2-Chloro-4-(4-(4-(trifluoromethoxy)phenyl)-1H-imidazol-1-yl)phenyl)-3-(3-(5-methyl-2-(3,3,3-trifluoropropoxy)phenyl)-4-oxothiazolidin-2-ylidene)urea], the mortality at 50 µg/cm2 [2] is reported as 50 to 100% and the “BAW rating (% control or mortality class)” value [3] is reported as “A (50-100)”.

In the case of `COC(c1ccc(C)cc1N1C(=O)CS/C1=N\C(=O)Nc1ccc(-n2cnc(-c3ccc(OC(F)(F)F)cc3)c2)cc1Cl)C(F)(F)F` (stereo not drawn) [Compound J791, (Z)-1-(2-Chloro-4-(4-(4-(trifluoromethoxy)phenyl)-1H-imidazol-1-yl)phenyl)-3-(3-(5-methyl-2-(2,2,2-trifluoro-1-methoxyethyl)phenyl)-4-oxothiazolidin-2-ylidene)urea], the mortality at 50 µg/cm2 [2] is reported as 50 to 100% and the “BAW rating (% control or mortality class)” value [3] is reported as “A (50-100)”.

With `Cc1ccc(C(C)C)c(N2C(=O)CS/C2=N\C(=O)Nc2ccc(-n3cnc(-c4ccc(OC(F)(F)F)cc4)c3)cc2Cl)c1` [Compound J792, (Z)-1-(2-Chloro-4-(4-(4-(trifluoromethoxy)phenyl)-1H-imidazol-1-yl)phenyl)-3-(3-(2-isopropyl-5-methylphenyl)-4-oxothiazolidin-2-ylidene)urea] the mortality at 50 µg/cm2 [2] was 50 to 100% and the “BAW rating (% control or mortality class)” value [3] was “A (50-100)”.

For `Cc1ccc(COCC(F)(F)F)c(N2C(=O)CS/C2=N\C(=O)Nc2ccc(-c3ncn(-c4ccc(C(F)(F)C(F)(F)F)cc4)n3)cc2F)c1` [Compound J793, (Z)-1-(2-Fluoro-4-(1-(4-(perfluoroethyl)phenyl)-1H-1,2,4-triazol-3-yl)phenyl)-3-(3-(5-methyl-2-((2,2,2-trifluoroethoxy)methyl)phenyl)-4-oxothiazolidin-2-ylidene)urea], the mortality at 50 µg/cm2 [2] was 50 to 100% and the “BAW rating (% control or mortality class)” value [3] was “A (50-100)”.

With `Cc1ccc(COCC(F)(F)F)c(N2C(=O)CS/C2=N\C(=O)Nc2ccc(-c3ncn(-c4ccc(C(F)(F)C(F)(F)F)cc4)n3)cc2C)c1` [Compound J794, (Z)-1-(3-(5-Methyl-2-((2,2,2-trifluoroethoxy)methyl)phenyl)-4-oxothiazolidin-2-ylidene)-3-(2-methyl-4-(1-(4-(perfluoroethyl)phenyl)-1H-1,2,4-triazol-3-yl)phenyl)urea] the mortality at 50 µg/cm2 [2] was 50 to 100% and the “BAW rating (% control or mortality class)” value [3] was “A (50-100)”.

In the case of `CCOCc1ccc(C)cc1N1C(=O)CS/C1=N\C(=O)Nc1ccc(-c2ncn(-c3ccc(C(F)(F)C(F)(F)F)cc3)n2)cc1F` [Compound J795, (Z)-1-(3-(2-(Ethoxymethyl)-5-methylphenyl)-4-oxothiazolidin-2-ylidene)-3-(2-fluoro-4-(1-(4-(perfluoroethyl)phenyl)-1H-1,2,4-triazol-3-yl)phenyl)urea], the mortality at 50 µg/cm2 [2] is reported as 50 to 100% and the “BAW rating (% control or mortality class)” value [3] is reported as “A (50-100)”.

For `CCOCc1ccc(C)cc1N1C(=O)CS/C1=N\C(=O)Nc1ccc(-c2ncn(-c3ccc(C(F)(F)C(F)(F)F)cc3)n2)cc1C` [Compound J796, (Z)-1-(3-(2-(Ethoxymethyl)-5-methylphenyl)-4-oxothiazolidin-2-ylidene)-3-(2-methyl-4-(1-(4-(perfluoroethyl)phenyl)-1H-1,2,4-triazol-3-yl)phenyl)urea], the mortality at 50 µg/cm2 [2] was 50 to 100% and the “BAW rating (% control or mortality class)” value [3] was “A (50-100)”.

`Cc1cc(C)c(C)c(N2C(=O)CS/C2=N\C(=O)Nc2ccc(-c3ncn(-c4ccc(OC(F)(F)F)cc4)n3)cc2F)c1` [Compound J797, (Z)-1-(2-Fluoro-4-(1-(4-(trifluoromethoxy)phenyl)-1H-1,2,4-triazol-3-yl)phenyl)-3-(4-oxo-3-(2,3,5-trimethylphenyl)thiazolidin-2-ylidene)urea] was tested, and the mortality at 50 µg/cm2 [2] was 50 to 100% and the “BAW rating (% control or mortality class)” value [3] was “A (50-100)”.

In the case of `COc1c(C)cccc1N1C(=O)CS/C1=N\C(=O)Nc1ccc(-c2ncn(-c3ccc(OC(F)(F)F)cc3)n2)cc1F` [Compound J798, (Z)-1-(2-Fluoro-4-(1-(4-(trifluoromethoxy)phenyl)-1H-1,2,4-triazol-3-yl)phenyl)-3-(3-(2-methoxy-3-methylphenyl)-4-oxothiazolidin-2-ylidene)urea], the mortality at 50 µg/cm2 [2] is reported as 50 to 100% and the “BAW rating (% control or mortality class)” value [3] is reported as “A (50-100)”.

In the case of `Cc1ccc(C(F)(F)F)cc1N1C(=O)CS/C1=N\C(=O)Nc1ccc(-c2ncn(-c3ccc(OC(F)(F)F)cc3)n2)cc1F` [Compound J799, (Z)-1-(2-Fluoro-4-(1-(4-(trifluoromethoxy)phenyl)-1H-1,2,4-triazol-3-yl)phenyl)-3-(3-(2-methyl-5-(trifluoromethyl)phenyl)-4-oxothiazolidin-2-ylidene)urea], the mortality at 50 µg/cm2 [2] is reported as 50 to 100% and the “BAW rating (% control or mortality class)” value [3] is reported as “A (50-100)”.

In the case of `Cc1ccc(COCCF)c(N2C(=O)CS/C2=N\C(=O)Nc2ccc(-c3ncn(-c4ccc(OC(F)(F)C(F)(F)F)cc4)n3)cc2C)c1` [Compound J801, (Z)-1-(3-(2-((2-Fluoroethoxy)methyl)-5-methylphenyl)-4-oxothiazolidin-2-ylidene)-3-(2-methyl-4-(1-(4-(perfluoroethoxy)phenyl)-1H-1,2,4-triazol-3-yl)phenyl)urea], the mortality at 50 µg/cm2 [2] is reported as 50 to 100% and the “BAW rating (% control or mortality class)” value [3] is reported as “A (50-100)”.

With `Cc1ccc(COCC(F)(F)F)c(N2C(=O)CS/C2=N\C(=O)Nc2ccc(-c3n[nH]c(-c4ccccc4)n3)cc2)c1` [Compound J802, (Z)-1-(3-(5-Methyl-2-((2,2,2-trifluoroethoxy)methyl)phenyl)-4-oxothiazolidin-2-ylidene)-3-(4-(5-phenyl-1H-1,2,4-triazol-3-yl)phenyl)urea] the mortality at 50 µg/cm2 [2] was 50 to 100% and the “BAW rating (% control or mortality class)” value [3] was “A (50-100)”.

With “(Z)-1-(2-Fluoro-4-(1-(4-(trifluoromethoxy)phenyl)-1H-1,2,4-triazol-3-yl)phenyl)-3-(3-(5-methyl-2-((thiophen-3-ylmethoxy)methyl)phenyl)-4-oxothiazolidin-2-ylidene)urea [Compound J623]” the CL rating [2] was “A (50-100)” and the BAW rating [3] was “A (50-100)”.

For “(Z)-1-(3-(5-(Dimethylamino)-2-isopropylphenyl)-4-oxothiazolidin-2-ylidene)-3-(2-fluoro-4-(1-(6-(trifluoromethyl)pyridazin-3-yl))-1H-1,2,4-triazol-3-yl)phenyl)urea [Compound J393]”, the CL rating [2] was “A (50-100)” and the BAW rating [3] was “A (50-100)”.

With “(Z)-1-(3-(5-ethoxy-2-((2,2,2-trifluoroethoxy)methyl)phenyl)-4-oxothiazolidin-2-ylidene)-3-(2-methyl-4-(1-(4-(trifluoromethoxy)phenyl))-1H-1,2,4-triazol-3-yl)phenyl)urea [Compound J575]” the CL rating [2] was “A (50-100)” and the BAW rating [3] was “A (50-100)”.
